Experimental data as given in article PMC11618975, “Design and Development of Novel Hybrids Based on Pyrrolo[2,1‐f][1,2,4]Triazine and 1‐(Methylpiperidin‐4‐yl) Aniline–Based Analogs: Exploring the Utility as Anticancer Agents via MERTK Inhibition” (Chemical Biology & Drug Design, 2024).
Entries after “also recorded” stand apart in the source; their conditions may differ. Read-outs that look alike come from different tables or passages of the source.

What was measured:
[1] = system: MCF-7 breast cancer cells; experiment: Cell viability (resazurin) assay, MCF-7; format: cell-based; settings: read-out: IC50 values (mean ± SD) MCF-7
Procedure: (§1) This includes lung cancer cells (A549) and breast cancer cells (MCF‐7 and MDA‐MB‐231). […] The remaining compounds were also found to portray the inhibition at a low micromolar range and better than the cisplatin, employed as a positive control during the experiment.
(§2) The cell viability assay of new compounds was performed against A549, MCF‐7, and MDA‐MB‐231 carcinoma cell lines. The cells (2500 cells/well) were seeded in a 96‐well plate using DMEM media (Gibco by Life Technologies) consisting of 10% FBS and subjected to incubation at 37°C for 24 h in 5% CO2 in a Nuaire incubator (humidified) for adherence to surface and growth. After 24 h, cells were subjected to treatment against target compounds (1K1‐1K5) at different concentrations (final concentrations ranging from 0.01–30 μM) and left for incubation for 72 h at the same conditions as mentioned above. The same procedure was repeated after 72 h after replacing the remaining test compound with fresh media and incubating treated cells for a further 48 h. After incubation, the remaining compounds with media were removed followed by washing with fresh media and the addition of 100 μL of resazurin (1 mM, Sigma). The 96‐well plate was incubated for 4 h at room temperature. A multimode microplate reader was used to record fluorescence at 535 nm (excitation) and 590 nm (emission) wavelengths. Background fluorescence was subtracted for calculating final results and avoiding any interference and normalized against vehicle control (DMSO treated cells) to calculate final cell viability. Cell viability (percentage) was used to calculate the IC50 values of the target compounds using fitting the curve to the “four‐parameter variable slope logistic model” using Prism Graph Pad (Kathuria et al. [2023]; Rani et al. [2023]).

[2] = Human liver microsomal stability (DMPK); format: in vitro ADME; settings: for % parent remaining: human liver microsomes 0.5 mg/mL, 1 μM compound, NADPH, 30 min; for half-life at 1 μM: human, liver microsomes, pH 7.4, human liver microsomes, read-out: T 1/2 (HLM); for microsomal CLint at 1 μM: pH 7.4, human liver microsomes, read-out: CLint (HLM)
Procedure: (§3) To understand the intrinsic pharmacokinetics of synthetics and their stability in relation to human liver microsomal (HLM) and mouse liver microsomal (MLM), we performed the DMPK studies.
(§4) The DMPK evaluation involves multiple reagents and instruments. The chemical and reagents include synthesized target molecules (at a concentration of 1–3 mg), DMSO (HPLC grade), PBS (pH = 7.4), NADPH, and liver microsomes (human and mouse) procured from Thermo. The instruments include Nexera X2 UPLC with an AB Sciex QTrap 4500 MS/MS detector (Shimadzu), single and multichannel micropipette (Eppendorf USA and Thermo), a 96‐well plate (1 mL capacity with deep wells) vortex mixer (Tarsons), centrifuge tubes (Tarsons) water bath (MRC), and a centrifuge (Thermo). The fresh stock solutions (10 mM) were prepared and incubations were carried out in duplication. Each well‐comprised potassium phosphate buffer (100 mM, pH 7.4) with 0.5 mg/mL microsome, NADPH (1 mM), and target molecule (1 μM). After 30 min incubation (37°C), the aliquots were taken at 0 and 30 min and quenched with chilled acetonitrile comprising Terfenadine as internal standard. The samples were centrifuged at 4000 rpm at 4°C, and the supernatant was subjected to LC–MS/MS for analysis. The experiment was used to determine the half‐life of the compound with the help of peak area ratio relative to the internal standard.

[3] = Mouse liver microsomal stability (DMPK); format: in vitro ADME; settings: for % parent remaining: mouse liver microsomes 0.5 mg/mL, 1 μM compound, NADPH, 30 min; for half-life at 1 μM: mouse, liver microsomes, pH 7.4, mouse liver microsomes, read-out: T 1/2 (MLM); for microsomal CLint at 1 μM: pH 7.4, mouse liver microsomes, read-out: CLint (MLM)
Procedure: as §3, §4

[4] = system: MDA-MB-231 breast cancer cells; experiment: Cell viability (resazurin) assay, MDA-MB-231; format: cell-based; settings: MDA-MB-231 cells, read-out: IC50 values (mean ± SD) MDA-MB-231
Procedure: as §1, §2

A549 lung cancer cells = experiment: Cell viability (resazurin) assay, A549; format: cell-based; settings: read-out: IC50 values (mean ± SD) A549
Procedure: as §1, §2

MERTK (cMER) = target: T1, MERTK (cMER) (Homo sapiens, UniProt Q12866); experiment: MERTK kinase inhibition assay (Z-Lyte kinase assay kit); format: biochemical
T1 sequence (Q12866 21-999): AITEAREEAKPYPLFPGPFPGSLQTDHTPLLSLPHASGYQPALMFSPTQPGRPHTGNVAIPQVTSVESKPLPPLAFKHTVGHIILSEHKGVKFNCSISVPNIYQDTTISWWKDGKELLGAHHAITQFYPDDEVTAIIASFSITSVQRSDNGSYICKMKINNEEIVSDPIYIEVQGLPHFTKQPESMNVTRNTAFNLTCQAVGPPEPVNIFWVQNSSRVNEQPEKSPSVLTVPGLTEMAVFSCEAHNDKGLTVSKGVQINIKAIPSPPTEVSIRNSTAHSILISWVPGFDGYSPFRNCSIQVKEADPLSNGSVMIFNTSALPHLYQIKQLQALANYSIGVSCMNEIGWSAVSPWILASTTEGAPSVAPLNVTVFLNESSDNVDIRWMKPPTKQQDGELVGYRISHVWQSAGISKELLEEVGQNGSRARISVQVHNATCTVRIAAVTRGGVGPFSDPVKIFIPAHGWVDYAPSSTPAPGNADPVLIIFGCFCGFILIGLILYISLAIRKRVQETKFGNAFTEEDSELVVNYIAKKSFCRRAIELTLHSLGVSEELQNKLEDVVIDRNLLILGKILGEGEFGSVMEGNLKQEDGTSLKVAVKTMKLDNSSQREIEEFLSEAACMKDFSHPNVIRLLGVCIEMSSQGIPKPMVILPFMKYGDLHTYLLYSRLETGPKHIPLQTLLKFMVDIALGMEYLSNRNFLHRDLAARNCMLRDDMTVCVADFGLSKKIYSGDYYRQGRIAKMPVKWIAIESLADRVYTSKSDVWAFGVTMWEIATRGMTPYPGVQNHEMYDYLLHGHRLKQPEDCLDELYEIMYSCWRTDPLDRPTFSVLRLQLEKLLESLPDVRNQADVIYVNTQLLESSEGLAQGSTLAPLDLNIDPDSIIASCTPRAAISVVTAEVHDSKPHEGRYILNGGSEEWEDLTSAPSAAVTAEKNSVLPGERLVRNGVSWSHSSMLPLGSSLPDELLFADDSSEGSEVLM
Procedure: All the synthesized molecules were assessed for their kinase inhibitory activity against MERTK using a kinase inhibition assay.
[…] (z‐Lyte kinase assay kit‐tyr4 peptide) was utilized to determine MERTK inhibitory activity as per the protocol supplied by the supplier along with the kit. Briefly, the mixture of MERTK (cMER) / Tyr 02 (2X) was made using HEPES buffer (50 mM, pH 7.5) comprising polyoxyethylene lauryl ether solution (0.01%), MgCl2 (10 mM), MnCl2 (4 mM), EGTA (1 mM), and DTT (2 mM). The kinase solution of 10 μL was used as the final reaction solution. In the next step, the target molecules in varying concentrations were incubated with kinase solution for 1 h. Development reagent A (5 μL) of 1:128 dilution was added after the incubation period. The fluorescence was measured at Ex/Em 400, 445, and 520 nm using a microplate reader for the determination of final percentage inhibition. The percent phosphorylation was determined via the use of the emission ratio calculated from the division of Coumarin Emission (at 445 nm) to fluorescein emission (at 520 nm). %phosphorylation=1−Emission ratio×F100%−C100%/C0%−C100%+Emission ratioF100%−F0%

[5] = Homo sapiens, MCF7, MCF-7 cells

SMILES | IC50 [1, 5] [nM] | % parent remaining [2] [%] | half-life at 1 μM [2] [h] | microsomal CLint at 1 μM [2] [µL/min/mg] | % parent remaining [3] [%] | half-life at 1 μM [3] [h] | microsomal CLint at 1 μM [3] [µL/min/mg] | IC50 ([4]; Homo sapiens) [nM] | IC50 (A549 lung cancer cells; Homo sapiens) [nM] | inhibition of MERTK (MERTK (cMER); 1 and 10 μM test concentrations) | MERTK inhibition compared with positive control staurosporine (MERTK (cMER); listed as IK5) | IC50 ([1]; MCF-7 cells) [nM] | IC50 [4] [nM] | IC50 (A549 lung cancer cells) [nM]
CN1CCC(c2ccc(Nc3ncnn4cc(-c5cc(F)c(F)c(F)c5)cc34)cc2F)CC1 [1K1, N‐(3‐Fluoro‐4‐(1‐Methylpiperidin‐4‐yl)phenyl)‐6‐(3,4,5‐trifluorophenyl)pyrrolo[2,1‐f][1,2,4]Triazin‐4‐Amine] | 1280 ± 14 | 71.7 | 1.04 | 22 | 70 | 0.972 | 24 | 4020 ± 15 | 8630 ± 21 | – | – | – | – | –
CCOc1c(Cl)cc(-c2cc3c(Nc4ccc(C5CCN(C)CC5)c(F)c4)ncnn3c2)cc1OC [1K2, 6‐(3‐Chloro‐4‐Ethoxy‐5‐Methoxyphenyl)‐N‐(3‐Fluoro‐4‐(1‐Methylpiperidin‐4‐yl)phenyl)pyrrolo[2,1‐f][1,2,4]Triazin‐4‐Amine] | 440 ± 15 | 82.8 | 1.83 | 13 | 83.4 | 1.9 | 12 | 1700 ± 11 | 1180 ± 19 | – | – | – | – | –
CN1CCC(c2ccc(Nc3ncnn4cc(-c5ccc(C(C)(C)C)cc5)cc34)cc2F)CC1 [1K3, 6‐(4‐(Tert‐butyl)phenyl)‐N‐(3‐Fluoro‐4‐(1‐Methylpiperidin‐4‐yl)phenyl)pyrrolo[2,1‐f][1,2,4]Triazin‐4‐Amine] | 1420 ± 21 | 65.7 | 0.615 | 28 | 57 | 0.823 | 38 | 4060 ± 19 | 1440 ± 17 | – | – | – | – | –
COc1cc(-c2cc3c(Nc4ccc(C5CCN(C)CC5)c(F)c4)ncnn3c2)cc(Cl)c1F [1K4, 6‐(3‐Chloro‐4‐Fluoro‐5‐Methoxyphenyl)‐N‐(3‐Fluoro‐4‐(1‐Methylpiperidin‐4‐yl)phenyl)pyrrolo[2,1‐f][1,2,4]Triazin‐4‐Amine] | 1140 ± 11 | 75.8 | 1.25 | 18 | 91.7 | 3.97 | 6 | 1470 ± 14 | 890 ± 11 | – | – | – | – | –
CCOc1ccc(-c2cc3c(Nc4ccc(C5CCN(C)CC5)c(F)c4)ncnn3c2)cc1OC [1K5, 6‐(4‐Ethoxy‐3‐Methoxyphenyl)‐N‐(3‐Fluoro‐4‐(1‐Methylpiperidin‐4‐yl)phenyl)pyrrolo[2,1‐f][1,2,4]Triazin‐4‐Amine] | 420 ± 17 | 94.9 | 6.61 | 3 | 79.7 | 1.54 | 15 | 800 ± 11 | 360 ± 19 | approx. 42% | comparable inhibition to positive control staurosporine; also recorded: comparable inhibitory potential to the positive control drug staurosporine | – | – | –
N.N.[Cl][Pt][Cl] [Cisplatin, cisplatin, reference compound] | – | – | – | – | – | – | – | – | – | – | – | 4930 ± 130 | 5420 ± 90 | 5860 ± 9
